# Tests used:
# T1R2/T1R3 taste receptor = target: T1, T1R2/T1R3 taste receptor (Homo sapiens, UniProt Q7RTX0+Q8TE23); experiment: Receptor-based assay: sweetener EC50 enhancement ratio with and without test compound; assay type: cell-based; conditions: for Sucrose Enhancement EC50 Ratio: sweetener sucrose
# T1 sequence (Q8TE23 20-839): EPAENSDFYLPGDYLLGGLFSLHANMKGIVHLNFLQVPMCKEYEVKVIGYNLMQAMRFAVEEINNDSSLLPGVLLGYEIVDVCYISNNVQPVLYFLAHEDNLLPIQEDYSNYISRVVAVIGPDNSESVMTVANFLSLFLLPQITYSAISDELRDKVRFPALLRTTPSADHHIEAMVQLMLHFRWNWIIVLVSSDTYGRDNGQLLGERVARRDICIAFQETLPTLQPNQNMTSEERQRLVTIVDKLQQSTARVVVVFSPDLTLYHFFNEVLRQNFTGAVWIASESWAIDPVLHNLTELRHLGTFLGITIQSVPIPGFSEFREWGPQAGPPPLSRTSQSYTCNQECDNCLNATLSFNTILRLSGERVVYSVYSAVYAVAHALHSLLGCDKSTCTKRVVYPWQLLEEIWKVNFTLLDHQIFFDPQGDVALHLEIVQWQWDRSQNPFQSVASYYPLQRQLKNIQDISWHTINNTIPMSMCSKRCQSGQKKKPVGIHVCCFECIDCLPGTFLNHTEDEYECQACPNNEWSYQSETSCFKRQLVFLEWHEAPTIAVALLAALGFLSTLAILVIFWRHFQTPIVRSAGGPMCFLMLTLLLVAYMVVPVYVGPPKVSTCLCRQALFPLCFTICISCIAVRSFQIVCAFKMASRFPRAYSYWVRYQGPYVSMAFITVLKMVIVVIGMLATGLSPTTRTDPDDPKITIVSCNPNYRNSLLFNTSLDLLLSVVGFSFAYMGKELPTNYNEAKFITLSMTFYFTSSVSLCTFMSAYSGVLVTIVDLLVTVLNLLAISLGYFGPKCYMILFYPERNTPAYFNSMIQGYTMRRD
# T1 sequence (Q7RTX0 21-852): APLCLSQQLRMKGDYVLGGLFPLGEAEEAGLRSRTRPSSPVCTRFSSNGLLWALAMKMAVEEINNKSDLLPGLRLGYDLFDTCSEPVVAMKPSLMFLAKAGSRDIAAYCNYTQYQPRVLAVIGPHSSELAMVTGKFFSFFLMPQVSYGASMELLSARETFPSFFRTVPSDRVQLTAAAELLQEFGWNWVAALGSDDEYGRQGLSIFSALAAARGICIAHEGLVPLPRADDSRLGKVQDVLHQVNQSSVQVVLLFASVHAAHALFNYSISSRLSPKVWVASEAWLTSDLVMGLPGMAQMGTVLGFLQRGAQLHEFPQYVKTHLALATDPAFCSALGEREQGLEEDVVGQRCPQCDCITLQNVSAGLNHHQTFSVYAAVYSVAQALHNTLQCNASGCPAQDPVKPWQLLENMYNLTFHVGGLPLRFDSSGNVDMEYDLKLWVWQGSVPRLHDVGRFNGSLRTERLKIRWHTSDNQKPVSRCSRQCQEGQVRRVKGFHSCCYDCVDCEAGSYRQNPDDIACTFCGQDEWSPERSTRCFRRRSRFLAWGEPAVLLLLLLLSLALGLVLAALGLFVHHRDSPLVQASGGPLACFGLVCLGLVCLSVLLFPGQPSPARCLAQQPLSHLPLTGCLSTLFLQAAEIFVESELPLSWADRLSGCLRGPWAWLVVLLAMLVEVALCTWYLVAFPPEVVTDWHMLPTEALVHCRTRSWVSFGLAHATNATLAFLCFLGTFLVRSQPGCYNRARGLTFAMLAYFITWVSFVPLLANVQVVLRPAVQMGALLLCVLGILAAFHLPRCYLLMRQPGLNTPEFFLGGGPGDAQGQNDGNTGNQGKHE
# Procedure, shortened: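 Sweetener (sucrose, sucralose, fructose) EC50 measured alone and with 1, 3, 10 or 50 μM test compound. Enhancement ratio = EC50 without/with compound; A = >1 to <10, B = 10–20, C = >20.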
# [1] = Sensory paired-comparison sweetness test of sweetener (sucrose or high-fructose corn syrup) with test compound; assay type: in vivo, human; conditions: test compound 10 ppm or less with 6% sucrose, low sodium buffer pH 7.1; sucrose-alone concentration of equivalent perceived sweetness
# Method: Test samples containing either a sweetener (sucrose or high-fructose corn syrup) alone or in combination with a test compound were presented in pairs to a group of panelist who were asked to determine which of the samples was sweeter. Subjects refrained from eating or drinking (except water) for at least 1 hour prior to the test. Subjects rinsed with water several times to clean the mouth. The samples within a paired comparison test were presented in a randomized, counterbalanced order. Panelists had up to a 1 minute delay between taste tests to clear the mouth of any tastes. Binomial probability tables were used to determine the probability of the correct number of responses occurring for each test at alpha-0.05.
# Stock solutions of test compounds were prepared at 1000× final concentration with ethanol to ensure dispersion in solution. Test compound samples including sucrose were prepared by diluting the stock solutions in a low sodium buffer (0.952 g of KCl, 5.444 g of Na2HPO4, and 0.952 g of KH2PO4 in deionized ultrafiltered water) at pH 7.1 and containing sucrose. Test compound samples including high fructose corn syrup were prepared by diluting the stock solutions in the low sodium buffer at pH 2.8 (using citric acid to adjust the pH) and containing high fructose corn syrup. Control samples were balanced to 0.1% ethanol final.
# In samples containing the test compound, the test compound was present at a concentration of 10 ppm or less and the concentration of sucrose was 6%. This table indicates the sucrose-alone concentration having a perceived sweetness intensity equivalent to the sweetness intensity of the combination of test compound and sucrose. An “A” value indicates an equivalent sucrose concentration greater than 6% and less than 10%. A “B” value indicates an equivalent sucrose concentration of 10% or greater. […]
structure (smiles),measurement,setting,value
"CCOCC(=O)N[C@H]1CC[C@H](Oc2cccc3nc(C)c(C(=O)O)c(N)c23)CC1 [Compound 300, 4-Amino-5-((trans-4-(2-ethoxyacetamido)cyclohexyl)oxy)-2-methylquinoline-3-carboxylic acid]",Sucrose Enhancement EC50 Ratio,T1R2/T1R3 taste receptor; 1 μM test compound,B (an enhancement ratio from 10 to 20)
same,Sucrose Enhancement EC50 Ratio,T1R2/T1R3 taste receptor; 3 μM test compound,C (an enhancement ratio greater than 20)
same,Sucralose Enhancement EC50 Ratio,"T1R2/T1R3 taste receptor; 10 μM test compound, sweetener sucralose",B (an enhancement ratio from 10 to 20)
same,Sucrose Enhancement EC50 Ratio,T1R2/T1R3 taste receptor; 10 μM test compound,C (an enhancement ratio greater than 20)
same,Equivalent Sucrose Conc.,[1],B (an equivalent sucrose concentration of 10% or greater)
same,melting point,,204 to 206 °C

# From US11339128B2 (Firmenich Incorporated, priority 2014, dated 2022)
